{
  "source": "paper PMC9673804",
  "about": "“Design, synthesis and antitumor evaluation of novel pyrazolo[3,4-d]pyrimidines incorporating different amino acid conjugates as potential DHFR inhibitors” (Journal of Enzyme Inhibition and Medicinal Chemistry, 2022)",
  "key": {"Bax [1]": {"tested_on": "Bax", "assay": "Western blot of Bax expression in MCF-7", "type": "cell-based, human", "procedure": "(§1) The effect of compound 7f on the expression of DHFR, Casp3, Bax, and Bcl-2 proteins in MCF-7 cancer cells was evaluated by western blotting as previously performed. The cancer cells treated or untreated were collected were harvested and blotted on SDS-polyacrylamide gel and separated by Cleaver electrophoresis unit (Cleaver, UK), transferred onto polyvinylidene fluoride (PVDF) membranes (Millipore, USA) for 30 min using a Semi-dry Electroblotter (Biorad, USA) at 2.5 A and 25 V for 30 min. […] After washing, the chemiluminescent Western ECL substrate (Perkin Elmer, Waltham, MA, USA) was applied to the blot and then incubated for 1 min with a mixture of equal volumes from ECL solution A and ECL solution B. The chemiluminescent signals were captured using a CCD camera-based imager (Chemi Doc imager, Biorad, USA), and the bands intensities were then measured by Image J software program. […] For colorimetric assays two-way ANOVA test followed by Bonferroni posttest were used, while for quantification expression on western blot, student-t-test was used (significance p < 0.05). […]\n(§2) Sodium dodecyl sulfate polyacrylamide gel electrophoresis (SDS-PAGE) is used to separate proteins based on their size. […] The secondary antibody is typically linked to an enzyme that produces luminescence upon the reaction with its substrate. […]"}, "[2]": {"tested_on": "pancreatic human cancer cell lines (BxPC-3)", "assay": "SRB cytotoxicity assay, BxPC-3", "type": "cell-based", "details": "BxPC-3 cells", "procedure": "(§3) The SRB colorimetric assay was employed to assess the synthesized compounds’ cytotoxic effects on several cancer cell lines (Table 1)[11–14]. […] Furthermore, the effect of tested compounds was evaluated on the normal immortalized HPDE cell line.\n(§4) Sulforhodamine B (SRB) assay was employed to assay in-vitro antitumor activities of all the synthesised compounds as describer previously. […] The cell lines were obtained from the American Type Culture Collection (Rockville, USA)."}, "DHFR": {"tested_on": "DHFR", "assay": "Western blot of DHFR expression in MCF-7", "type": "cell-based, human", "procedure": "as §1, §2"}, "[3]": {"tested_on": "MCF-7 breast cancer cell line", "assay": "Annexin-V-FITC/PI cell apoptosis assay", "type": "cell-based, human", "details": "MCF-7, Annexin V-FITC/PI, 24 h", "procedure": "Cell cycle analysis was done for the compound 7f against MCF-7 breast cancer cell line[11]^,[14]. Clearly, compound 7f enhanced the accumulation proportion of cells at the pre-G1 phase from 2.19 to 41.36%, and the accumulation percentages in S phase from 31.87 to 46.36%.\nFlow cytometric analysis using Annexin-V-fluoresce in isothiocyanate (FITC) and propidium iodide (PI) staining kit (BD Pharmingen, San Diego, USA) was performed to assess the apoptosis. At 70% confluence, the cells were treated with compound 7f at different concentrations of (0–8 μmol/l) for 24 h. Then after trypsinization of cells, washing with PBS and centrifugation, the cells were mixed with FITC and PI in binding buffer. Becton Dickinson (Franklin Lakes, NJ, USA) was used to do the flow cytometry analysis[16]^,[17]."}, "caspase 3/7": {"tested_on": "caspase 3/7", "assay": "Caspase-Glo 3/7 assay in MCF-7", "type": "cell-based, human", "details": "½ IC50, IC50, 2×IC50, dose dependent", "procedure": "(§5) The apoptotic effect of compound 7f on breast cancer cell line MCF-7 were evaluated by quantification of Bax, caspase 3/7, and Bcl-2 using Bax ELISA Kit ab199080 (ABCAM, Cambridge, UK), Caspase-Glo 3/7 assay kits (Promega, Fitchburg, MA, USA), and Bcl-2 ELISA Kit ab119506 (ABCAM, Cambridge, UK), according the instructions of manufacturers[11]^,[14]. The cells were treated with compounds 7f (½ IC50, IC50, or 2 ×IC50), and the activities were shown as a percentage change from the untreated control. The experiments were performed in triplicate applying two-way ANOVA test followed by Bonferroni posttest to evaluate the significance (p < 0.05)."}, "[4]": {"tested_on": "normal immortalised pancreatic cell line (HPDE)", "assay": "SRB cytotoxicity assay, normal HPDE cells", "type": "cell-based", "details": "normal immortalized HPDE cell line", "procedure": "as §3, §4"}, "[5]": {"tested_on": "MCF-7 breast cancer cell line", "assay": "Flow cytometric cell cycle analysis", "type": "cell-based, human", "excerpt": "Clearly, compound 7f enhanced the accumulation proportion of cells at the pre-G1 phase from 2.19 to 41.36%, and the accumulation percentages in S phase from 31.87 to 46.36%. […] Figure 8)."}, "Bax [6]": {"tested_on": "Bax", "assay": "Bax ELISA in MCF-7", "type": "cell-based, human", "details": "½ IC50, IC50, 2×IC50, dose dependent", "procedure": "as §5"}},
  "note": "“Also recorded” adds a separate entry of the source.",
  "data": [
    {"smiles": "N=C(N)NCCCC(NC(=O)c1ccc(Nc2ncnc3c2cnn3-c2ccccc2)cc1)C(=O)O", "note": "(stereo not shown) [Compound 7f, 5-Guanidino-2-{4-[(1-phenyl-1H-pyrazolo[3,4-d]pyrimidin-4-yl)amino]benzamido}pentanoic acid]", "values": [
      {"measurement": "western blotting OD Bax", "setting": "Bax [1]; MCF7 cells, Cont.MCF7 0.152", "result": 0.346, "unit": "OD"},
      {"measurement": "expression of Bax (western blot)", "setting": "Bax [1]; MCF-7", "result": "significantly increased the expression"},
      {"measurement": "IC50", "setting": "[2]", "result": "7.09 ± 0.09", "unit": "µM"},
      {"measurement": "western blotting OD DHFR", "setting": "DHFR; MCF7 cells, Cont.MCF7 0.808", "result": 0.346, "unit": "OD"},
      {"measurement": "DHFR expression (western blot)", "setting": "DHFR; MCF-7 cancer cell line", "result": "significantly diminished the DHFR expression"},
      {"measurement": "Apoptosis Late", "setting": "[3]; control 0.13", "result": 21.31, "unit": "%"},
      {"measurement": "Apoptosis Early", "setting": "[3]; control 0.66", "result": 14.12, "unit": "%"},
      {"measurement": "Necrosis", "setting": "[3]; control 1.4", "result": 5.93, "unit": "%"},
      {"measurement": "release of caspase 3/7", "setting": "caspase 3/7", "result": "significantly surge the release"},
      {"measurement": "IC50", "setting": "[4]", "result": "> 50", "unit": "µM"},
      {"measurement": "Comment (cell cycle arrest)", "setting": "[5]; MCF-7 cells", "result": "arrested cell cycle at S phase; also recorded: Cell growth arrest at S"},
      {"measurement": "%Pre-G1", "setting": "[5]; MCF-7 cells treated with the compound, control 2.19", "result": 41.36, "unit": "%"},
      {"measurement": "%G2/M", "setting": "[5]; MCF-7 cells treated with the compound, control 12.01", "result": 1.5, "unit": "%"},
      {"measurement": "%S", "setting": "[5]; MCF-7 cells treated with the compound, control 31.87", "result": 46.39, "unit": "%"},
      {"measurement": "%G0-G1", "setting": "[5]; MCF-7 cells treated with the compound, control 56.12", "result": 52.11, "unit": "%"},
      {"measurement": "release of Bax protein", "setting": "Bax [6]", "result": "significantly surge the release"}
    ]}
  ]
}
